# Measured values as given in US8107711B2, “User interface method and system for management and control of automated image processing in high content screening or high throughput screening” (Vala Sciences, Inc., priority 2008, dated 2012).
# Tested on: IL-8 mRNA
# Test: IL-8 mRNA assay (Quantigene reagent set) quantified by automated image processing
# Format: cell-based
# Excerpt: Through use of inexpensive reagents and simple protocols a transcription assay can be conducted in which mRNA is synthesized and then captured. The location and number of individual mRNA species captured can be visualized in cells and tissue sections by fluorescence-based detection and quantified by automated image processing.
# For visualization in images, a probe is used which binds to target mRNA species with very high specificity. It is possible to generate probes to virtually any known sequence. Preferably, such probes are hybridized to the target mRNAs in cell or tissue samples that have been fixed and permeabilized. A fluorescent reagent may then added, which binds to the probe. When slides and well plates containing cultured cells are processed in this manner, and viewed with fluorescence microscopy, bright spots (mRNA loci) are apparent that correspond to individual copies of the target mRNA.
# To quantify gene transcription, the mRNA loci can be individually counted for each cell. While this can be done manually, by loading such images in a general purpose image analysis program, manual analysis is very laborious and time consuming due to fatigue and inconsistency between researchers. A convenient, user-friendly, and accurate alternative may be provided by an image processing algorithm, which may be in the form of a Windows® compatible, Java-based software system, specifically engineered for this application. With reference to FIG. 1, for example, such a system identifies individual cells, and quantifies the number of mRNA loci on a per cell basis in fields of view imaged for nuclei (shown in blue with DAPI staining), and for mRNA (shown in green using fluorescent reagents). Results produced by such a system may be input into a quantitative modeling system (such as a spreadsheet process) in order to organize, quantify, model, and present the results for interpretation and analysis.
# FIG. 2 illustrates the performance of an mRNA assay and quantification by an image processing algorithm in an experimental setting, using a Quantigene® reagent set available from Panomics, Inc., Fremont, Calif. and an automated image processing system available from Vala Sciences, Inc. In this assay, cells were exposed to different concentrations of phorbol 12-myristate 13-acetate (PMA), and analyzed for the copy number of IL-8 mRNA. For control cells (exposed to 0 PMA), essentially no IL-8 mRNA were detected (0.05/cell). In contrast, exposure to PMA led to a dramatic increase in the presence of the loci with an EC50 of between 0.1 and 1 ng/ml PMA.
# FIG. 6 illustrates in a general way how an image processing algorithm may operate to obtain results from images in the source folder. An example of one such algorithm designed for processing images of mRNA transcription is the CyteSeer™-ViewRNA process available from Vala Sciences, Inc. The algorithm starts with a nuclear image (such as those in the left panels of FIGS. 1 and 2), and identifies all of the nuclei within the field of view. A nuclear mask for each cell is established. […] One or more sets of experimental data may then be calculated by the automated image processing system, on a per cell basis, using the result images or masks. Preferably, these experimental data are presented and arranged according to a file convention and are placed into one or more files that can be transported, loaded, or otherwise made available to a quantitative modeling system (for example, a spreadsheet process). […]
smiles,measurement,setting,value
"CCCCCCCCCCCCCC(=O)O[C@@H]1[C@@H](C)[C@@]2(O)[C@@H](C=C(CO)C[C@]3(O)C(=O)C(C)=C[C@@H]23)[C@@H]2C(C)(C)[C@]12OC(C)=O [PMA, phorbol 12-myristate 13-acetate]",RNA spot count,"0.1 ng/ml PMA, well E15",14.3 spots/cell
same,fold increase in Area Rm,1 ng/ml PMA vs control well C15,3000 fold
same,RNA spot count,"1 ng/ml PMA, well G15",84.1 spots/cell
same,"Area Rm, the average area, per cell, of the RNA mask","1 ng/ml PMA, well G15 (control well C15 <1)",> 1100
same,"fold increase in TII Ri Rm, the total intensity of the spots/cell",PMA vs control (Table in FIG. 12),8000 fold
